Columns and labels:
Phosphodiesterase 4 = Phosphodiesterase 4 (Homo sapiens, UniProt P27815+Q08499+Q07343+Q08493); assay: Inhibition of PDE4 (unknown origin); assay type: protein assay
[1] = target: cGMP-specific 3',5'-cyclic phosphodiesterase (Homo sapiens, UniProt O76074); assay: Inhibition of PDE5 (unknown origin)
[2] = Inhibition of bovine PDE2; set-up: species or system Bos taurus
[3] = target: 3',5'-cyclic-AMP phosphodiesterase 4D (Homo sapiens, UniProt Q08499); assay: Inhibition of PDE4D3 (unknown origin)
[4] = Inhibition of PDE9 (unknown origin); set-up: species or system Homo sapiens
[5] = Inhibition of cGMP activated PDE2 (unknown origin); set-up: species or system Homo sapiens
[6] = target: High affinity 3',5'-cyclic-AMP phosphodiesterase 7A (Homo sapiens, UniProt Q13946); assay: Inhibition of PDE7A (unknown origin)
[7] = Inhibition of cGMP stimulated pig PDE2A; set-up: species or system Sus scrofa

Chain of 3',5'-cyclic-AMP phosphodiesterase 4D (Q08499 whole entry): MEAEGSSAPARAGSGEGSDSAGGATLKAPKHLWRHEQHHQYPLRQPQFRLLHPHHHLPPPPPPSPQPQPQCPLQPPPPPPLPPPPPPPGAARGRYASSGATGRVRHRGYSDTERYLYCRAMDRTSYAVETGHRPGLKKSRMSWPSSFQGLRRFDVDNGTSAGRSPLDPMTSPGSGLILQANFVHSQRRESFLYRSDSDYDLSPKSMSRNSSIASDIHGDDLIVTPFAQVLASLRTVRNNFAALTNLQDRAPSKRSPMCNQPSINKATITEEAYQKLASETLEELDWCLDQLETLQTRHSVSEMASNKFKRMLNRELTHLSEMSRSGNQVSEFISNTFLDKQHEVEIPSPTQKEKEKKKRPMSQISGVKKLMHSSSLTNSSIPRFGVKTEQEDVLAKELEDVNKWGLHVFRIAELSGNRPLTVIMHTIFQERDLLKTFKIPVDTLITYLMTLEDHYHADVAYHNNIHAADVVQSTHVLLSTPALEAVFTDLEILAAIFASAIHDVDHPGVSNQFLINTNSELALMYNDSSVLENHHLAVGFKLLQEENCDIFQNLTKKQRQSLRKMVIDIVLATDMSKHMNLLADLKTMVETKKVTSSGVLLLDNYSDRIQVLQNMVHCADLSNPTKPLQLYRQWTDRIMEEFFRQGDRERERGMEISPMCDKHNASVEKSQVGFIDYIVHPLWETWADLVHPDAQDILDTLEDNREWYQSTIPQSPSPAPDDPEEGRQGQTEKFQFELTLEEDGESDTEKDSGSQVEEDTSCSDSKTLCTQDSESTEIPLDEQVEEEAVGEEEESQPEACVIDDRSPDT
Chain of High affinity 3',5'-cyclic-AMP phosphodiesterase 7A (Q13946 whole entry): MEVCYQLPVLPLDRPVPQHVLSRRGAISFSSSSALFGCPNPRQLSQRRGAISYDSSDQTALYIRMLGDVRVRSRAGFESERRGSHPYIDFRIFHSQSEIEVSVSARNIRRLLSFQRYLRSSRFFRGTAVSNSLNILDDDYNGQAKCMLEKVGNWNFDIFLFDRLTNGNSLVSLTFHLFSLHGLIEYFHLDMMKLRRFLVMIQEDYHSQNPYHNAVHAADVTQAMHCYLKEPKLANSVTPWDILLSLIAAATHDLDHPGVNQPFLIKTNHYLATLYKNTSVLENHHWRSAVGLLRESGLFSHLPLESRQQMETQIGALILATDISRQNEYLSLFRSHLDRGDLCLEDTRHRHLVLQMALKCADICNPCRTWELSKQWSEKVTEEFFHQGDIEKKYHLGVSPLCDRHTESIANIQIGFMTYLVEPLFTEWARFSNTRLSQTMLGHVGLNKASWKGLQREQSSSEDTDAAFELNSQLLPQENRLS

CC(C)(Cc1ccc(-c2cccc(-n3cc(C(=O)NC4CC4)c(=O)c4cccnc43)c2)cc1)C(=O)O
IC50 (Phosphodiesterase 4): 0.88 nM

CC(C)(CC(=O)O)c1ccc(-c2cccc(-n3cc(C(=O)NC4CC4)c(=O)c4cccnc43)c2)cc1
IC50 (Phosphodiesterase 4): 0.85 nM

COc1ccc(CNc2c(CO)cnc3c(N(C)C)cc(C#N)cc23)cc1Cl
IC50 [1]: 0.27 nM

COc1ccc(CNc2c(CO)cnc3c(NCCN(C)C)cc(C#N)cc23)cc1Cl
IC50 [1]: 0.27 nM

CCNc1cc(C#N)cc2c(NCc3ccc(OC)c(Cl)c3)c(CO)cnc12
IC50 [1]: 0.27 nM

COc1ccc(CNc2c(CO)cnc3c(NC4CC4)cc(C#N)cc23)cc1Cl
IC50 [1]: 0.27 nM

COc1ccc(CNc2c(CO)cnc3c(N4CCOCC4)cc(C#N)cc23)cc1Cl
IC50 [1]: 0.27 nM

COc1ccc(Cc2nc(O)c3c(C)nc([C@@H](CCCc4ccccc4)[C@@H](C)O)n3n2)cc1OC
IC50 [2]: 2 nM

O=C(NC1CC1)c1cn(-c2cccc(-c3cccc([C@@H]4C[C@H]4C(=O)O)c3)c2)c2ncccc2c1=O
IC50 (Phosphodiesterase 4): 0.54 nM

COc1ccc([C@@H]2CNC(=O)[C@@H](Cc3cccc(C)c3)C2)cc1OC1CCCC1
IC50 [3]: 150 nM

C[C@H](Cc1nn2c(-c3ccccc3Cl)ncc2c(=O)[nH]1)C(F)(F)F
IC50 [4]: 55 nM

COc1ccc(Cc2nc3c(ncn3C(CCCc3ccccc3)C(C)=O)c(=O)[nH]2)cc1OC (centres undefined)
IC50 [5]: 0.6 nM

O=c1c2ccccc2[nH]c(=S)n1-c1ccccc1
IC50 [6]: 5500 nM

O=C(NC1CC1)c1cn(-c2cccc(-c3ccc([C@@H]4C[C@H]4C(=O)O)cc3)c2)c2ncccc2c1=O (relative stereo)
IC50 (Phosphodiesterase 4): 0.57 nM

O=C(NCC(F)(F)F)c1cn(-c2cccc(-c3ccc([C@@H]4C[C@H]4C(=O)O)cc3)c2)c2ncccc2c1=O (relative stereo)
IC50 (Phosphodiesterase 4): 0.51 nM

CC1(NC(=O)c2cn(-c3cccc(-c4ccc([C@@H]5C[C@H]5C(=O)O)cc4)c3)c3ncccc3c2=O)CC1 (relative stereo)
IC50 (Phosphodiesterase 4): 0.58 nM

CC(C)(c1cc(-c2cccc(-c3ccc([C@@H]4C[C@H]4C(=O)O)cc3)c2)c2ncccc2c1)S(C)(=O)=O (relative stereo)
IC50 (Phosphodiesterase 4): 0.32 nM

O=C(NC1CC1)c1cn(-c2cccc(-c3ccc([C@@H]4C[C@@H]4C(=O)O)c(F)c3)c2)c2ncccc2c1=O (relative stereo)
IC50 (Phosphodiesterase 4): 0.53 nM

CC(C)(C)NC(=O)c1cn(-c2cccc(-c3ccc([C@@H]4C[C@H]4C(=O)O)cc3)c2)c2ncccc2c1=O (relative stereo)
IC50 (Phosphodiesterase 4): 32 nM

O=C(NC1CCC1)c1cn(-c2cccc(-c3ccc([C@@H]4C[C@H]4C(=O)O)cc3)c2)c2ncccc2c1=O (relative stereo)
IC50 (Phosphodiesterase 4): 0.52 nM

O=C(NC1CC1)c1cn(-c2cccc(-c3ccccc3[C@@H]3C[C@H]3C(=O)O)c2)c2ncccc2c1=O (relative stereo)
IC50 (Phosphodiesterase 4): 4.6 nM

O=C(NCC1CC1)c1cn(-c2cccc(-c3ccc([C@@H]4C[C@H]4C(=O)O)cc3)c2)c2ncccc2c1=O (relative stereo)
IC50 (Phosphodiesterase 4): 0.35 nM

O=C(NC1CC1)c1cn(-c2cccc(-c3ccc([C@@H]4C[C@@H]4C(=O)O)cc3)c2)c2ncccc2c1=O (relative stereo)
IC50 (Phosphodiesterase 4): 1.6 nM

O=C(NC1CC1)c1cn(-c2cccc(-c3ccc([C@@H]4C[C@H]4c4nnn[nH]4)cc3)c2)c2ncccc2c1=O (relative stereo)
IC50 (Phosphodiesterase 4): 0.55 nM

O=C(NC1(O)CC1)c1cn(-c2cccc(-c3ccc([C@@H]4C[C@H]4C(=O)O)cc3)c2)c2ncccc2c1=O (relative stereo)
IC50 (Phosphodiesterase 4): 17 nM

CCCCCC[C@H]([C@H](C)O)n1cnc2c(N)ncnc21 (relative stereo) [(+)-EHNA]
IC50 [7]: 2000 nM
IC50 [5]: 700 nM
IC50 (Phosphodiesterase 4): 1700 nM

O=C(NC1CC1)c1cn(-c2cccc(C#Cc3ccc[n+]([O-])c3)c2)c2ncccc2c1=O [MK-0873]
IC50 (Phosphodiesterase 4): 5.1 nM
